# Measurements: US9023998B2, “Near infrared fluorogen and fluorescent activating proteins for in vivo imaging and live-cell biosensing” (Carnegie Mellon University, priority 2013, dated 2015)
# Legend:
# [1] = system: mL9.3 (SEQ. ID. NO. 20); experiment: Fluorogen activation by purified monomeric FAP mL9.3 (spectra); format: biochemical; settings: purified protein, about 300 nM fluorogen, PBS pH 7.4
# Excerpt: While the peptide linker that joins the VL units in dL9.2 (SEQ. ID. NO. 2) and dL9.5 (SEQ. ID. NO. 3) enhance fluorogen binding affinity and binding rate by reducing the entropic cost of assembly around the fluorogen, the linker is not strictly necessary for fluorogenic activation. […] In panels C and D, corresponding spectra from mL9.5:SKC602 (SEQ. ID. NO. 21:SKC602) and mL9.5:SKC728 (SEQ. ID. NO. 21:SKC728) fluoromodules are shown. Spectra were obtained using a Quantamaster™ fluorometer (PTI) equipped with dual monochromators on both excitation and emission light paths.
# To facilitate ligase-dependent cloning methods, the above procedure was repeated for dL9.5 (SEQ. ID. NO. 6), using otherwise identical primers that appended BspEI (TCCGGA) (SEQ. ID. NO. 25) and BamHI (GGATCC) (SEQ. ID. NO. 26) sites directly at the 5′ and 3′ termini, respectively, of the dL9.5 gene (SEQ. ID. NO. 6). The resulting plasmid, designated pPNL9z-dL9.5, could be digested with BspEI (SEQ. ID. NO. 25) and BamHI (SEQ. ID. NO. 26) to produce a yeast expression vector backbone capable of receiving inserts with like-digested termini. […]
# [2] = system: dL9.5 (SEQ. ID. NO. 3); experiment: Binding of fluorogen by FAP dL9.5
# Excerpt: The V70A mutation was propagated to both light chains to produce dL9.3 (SEQ. ID. NO. 31), which was immediately subjected to mutagenesis and screening in the surface-display format described previously (Chao, et al., Nature Protocols (2006)) in the presence of SKC602. The brightest clone collected from this screen was designated dL9.5 (SEQ. ID. NO. 3), and sequencing described exactly two mutations—tyrosine 96 to histidine—on both light chains.
Structure (SMILES),Induction of NIR fluorescence by mL9.3 [1],Binding by dL9.5 [2]
"CN(C)c1ccc(/C=C/C(=C2C=CC(=[N+](C)C)C=C2)c2ccc(N(C)C)cc2)cc1 [SKC602, (E)-N-(4-(1,3-bis(4-(dimethylamino)phenyl)allylidene)cyclohexa-2,5-dien-1-ylidene)-N-methylmethanaminium]",induces fluorescence,–
CN(C)c1ccc(C(/C=C/c2ccc(N(C)CCCCC(=O)NC(CCS(=O)(=O)O)C(=O)O)cc2)=C2C=CC(=[N+](C)C)C=C2)cc1 (stereo not drawn) [SKC728],induces fluorescence,bind
